This note sets out measurements from PubChem BioAssay AID1259407 (Chemical Carcinogenesis Research Information System (CCRIS), 2018).

This data set deals with CCRIS mutagenicity, Ames/micronucleus/aberration tests. Put plainly: CCRIS mutagenicity studies.
Setting [1] is: Test System: AMES SALMONELLA TYPHIMURIUM, Strain/Indicator: TA100, Metabolic Activation: NONE, Method: PREINCUBATION
Where [2] appears, read: Test System: AMES SALMONELLA TYPHIMURIUM, Strain/Indicator: TA98, Metabolic Activation: NONE, Method: STANDARD PLATE.
Setting [3] is: Test System: AMES SALMONELLA TYPHIMURIUM, Strain/Indicator: TA98, Metabolic Activation: RAT, LIVER, S-9, AROCLOR 1254, Method: STANDARD PLATE.

The source made the active and inactive calls. How the calls were made is not given here.

Regarding `Cc1cc(-c2ccc(N/N=C3\C(=O)c4c(O)cc(S(=O)(=O)O)cc4C=C3S(=O)(=O)O)c(C)c2)ccc1N/N=C1\C(=O)c2c(O)cc(S(=O)(=O)O)cc2C=C1S(=O)(=O)O`, the mutagenic call is, setting by setting: (Test System: AMES SALMONELLA TYPHIMURIUM, Strain/Indicator: TA98, Metabolic Activation: HAMSTER, LIVER, S-9, AROCLOR 1254 (10%), Method: PREINCUBATION) “inactive; negative”; (Test System: AMES SALMONELLA TYPHIMURIUM, Strain/Indicator: TA98, Metabolic Activation: NONE, Method: PREINCUBATION) “inactive; negative”; (Test System: AMES SALMONELLA TYPHIMURIUM, Strain/Indicator: TA98, Metabolic Activation: RAT, LIVER, S-9, AROCLOR 1254 (10%), Method: PREINCUBATION) “inactive; negative”; (Test System: AMES SALMONELLA TYPHIMURIUM, Strain/Indicator: TA100, Metabolic Activation: HAMSTER, LIVER, S-9, AROCLOR 1254 (10%), Method: PREINCUBATION) “inactive; negative”; under setting [1], “inactive; negative”; (Test System: AMES SALMONELLA TYPHIMURIUM, Strain/Indicator: TA100, Metabolic Activation: RAT, LIVER, S-9, AROCLOR 1254 (10%), Method: PREINCUBATION) “inactive; negative”. Further, the mutagenic call by setting is: (Test System: AMES SALMONELLA TYPHIMURIUM, Strain/Indicator: TA1535, Metabolic Activation: HAMSTER, LIVER, S-9, AROCLOR 1254 (10%), Method: PREINCUBATION) “inactive; negative”; (Test System: AMES SALMONELLA TYPHIMURIUM, Strain/Indicator: TA1535, Metabolic Activation: NONE, Method: PREINCUBATION) “inactive; negative”; (Test System: AMES SALMONELLA TYPHIMURIUM, Strain/Indicator: TA1535, Metabolic Activation: RAT, LIVER, S-9, AROCLOR 1254 (10%), Method: PREINCUBATION) “inactive; negative”; (Test System: AMES SALMONELLA TYPHIMURIUM, Strain/Indicator: TA1537, Metabolic Activation: HAMSTER, LIVER, S-9, AROCLOR 1254 (10%), Method: PREINCUBATION) “inactive; negative”; (Test System: AMES SALMONELLA TYPHIMURIUM, Strain/Indicator: TA1537, Metabolic Activation: NONE, Method: PREINCUBATION) “inactive; negative”; (Test System: AMES SALMONELLA TYPHIMURIUM, Strain/Indicator: TA1537, Metabolic Activation: RAT, LIVER, S-9, AROCLOR 1254 (10%), Method: PREINCUBATION) “inactive; negative”. Besides, the mutagenic call (Test System: AMES SALMONELLA TYPHIMURIUM, Strain/Indicator: TA1538, Metabolic Activation: RAT, LIVER, S-9, AROCLOR 1254, Method: STANDARD PLATE) is “inactive; negative”.

Take `COc1cc([N+](=O)[O-])ccc1N`: the mutagenic call reads like this: under setting [2], “active; positive”; under setting [3], “active; positive”.

For `C#Cc1ccc2c3c(cccc13)-c1ccccc1-2`, the mutagenic call is “active; positive” under setting [2] and “active; positive” (Test System: AMES SALMONELLA TYPHIMURIUM, Strain/Indicator: TA98, Metabolic Activation: RAT, LIVER, S-9, AROCLOR 1254 (2%), Method: STANDARD PLATE).

`O=[N+]([O-])C1CCCCC1`: for the setting “Test System: UDS RAT HEPATOCYTES, Strain/Indicator: THY INCORP, Metabolic Activation: NONE”, the mutagenic call was “active; positive”.

As for `C1=Cc2c3ccccc3cc3c2c1cc1ccccc13`, the mutagenic call is, setting by setting: (Test System: CHINESE HAMSTER OVARY, Strain/Indicator: V-79/6-THIOGUANINE, Metabolic Activation: RAT, LIVER, S-9, AROCLOR 1254, Method: FLASK ASSAY) “active; positive”; (Test System: CHINESE HAMSTER V-79, Strain/Indicator: V-79/6-THIOGUANINE, Metabolic Activation: RAT, LIVER, S-9, AROCLOR 1254, Method: SUSPENSION/PLATE) “active; positive”.

As for `NC(=S)NNC(N)=S`, the mutagenic call (End Point: IN VITRO CHROMOSOMAL ABERRATIONS, Test System: CHINESE HAMSTER OVARY CELLS, Metabolic Activation: RAT, LIVER, S-9, AROCLOR 1254) was “inactive; negative”.

With `O=P1(NCCCl)OCCCN1CCCl` (stereo not drawn), the mutagenic call reads like this: (Test System: AMES SALMONELLA TYPHIMURIUM, Strain/Indicator: TA100, Metabolic Activation: NADPH, Method: PREINCUBATION) “active; positive”; under setting [1], “active; positive”; (Test System: AMES SALMONELLA TYPHIMURIUM, Strain/Indicator: TA100, Metabolic Activation: RAT, LIVER, HEPATOCYTES, PHENOBARBITAL, Method: PREINCUBATION) “inactive; negative”; (Test System: AMES SALMONELLA TYPHIMURIUM, Strain/Indicator: TA100, Metabolic Activation: RAT, LIVER, S-9, AROCLOR 1254, Method: STANDARD PLATE) “active; positive”; (Test System: AMES SALMONELLA TYPHIMURIUM, Strain/Indicator: TA100, Metabolic Activation: RAT, LIVER, S-9, PHENOBARBITAL, NADPH, Method: PREINCUBATION) “active; positive”; (Test System: AMES SALMONELLA TYPHIMURIUM, Strain/Indicator: TA100, Metabolic Activation: RAT, LIVER, S-9, PHENOBARBITAL, Method: PREINCUBATION) “active; positive”. The mutagenic call is, setting by setting: (Test System: AMES SALMONELLA TYPHIMURIUM, Strain/Indicator: TA1535, Metabolic Activation: RAT, LIVER, HEPATOCYTES, PHENOBARBITAL, Method: PREINCUBATION) “active; positive”; (Test System: AMES SALMONELLA TYPHIMURIUM, Strain/Indicator: TA1535, Metabolic Activation: RAT, LIVER, S-9, AROCLOR 1254, Method: STANDARD PLATE) “active; positive”.

As to `Nc1ccc(Sc2ccc([N+](=O)[O-])cc2)cc1`, the mutagenic call under setting [2] is “active; positive” and the mutagenic call under setting [3] is “active; positive”.

As for `Cn1c(N)nc2nc3cccnc3cc21`, the mutagenic call by setting is: (Test System: AMES SALMONELLA TYPHIMURIUM, Strain/Indicator: TA98, Metabolic Activation: RAT, LIVER, S-9, AROCLOR 1254A, Method: STANDARD PLATE) “inactive; negative”; (Test System: AMES SALMONELLA TYPHIMURIUM, Strain/Indicator: YG1024, Metabolic Activation: RAT, LIVER, S-9, AROCLOR 1254A, Method: STANDARD PLATE) “active; positive”.
